Experimental data as given in ChEMBL document CHEMBL1134913, “Novel substituted 4-aminomethylpiperidines as potent and selective human beta3-agonists. Part 1: aryloxypropanolaminomethylpiperidines” (Bioorg Med Chem Lett, 2002).

Tests used:
[1] = biological target: T1, Beta-2 adrenergic receptor (Homo sapiens, UniProt P07550); assay: In vitro agonist activity measured by increase in cAMP levels in chinese hamster ovary cells (CHO) cells expressing human Beta-2 adrenergic receptor; assay type: functional, cell-based
T1 sequence (P07550 whole entry): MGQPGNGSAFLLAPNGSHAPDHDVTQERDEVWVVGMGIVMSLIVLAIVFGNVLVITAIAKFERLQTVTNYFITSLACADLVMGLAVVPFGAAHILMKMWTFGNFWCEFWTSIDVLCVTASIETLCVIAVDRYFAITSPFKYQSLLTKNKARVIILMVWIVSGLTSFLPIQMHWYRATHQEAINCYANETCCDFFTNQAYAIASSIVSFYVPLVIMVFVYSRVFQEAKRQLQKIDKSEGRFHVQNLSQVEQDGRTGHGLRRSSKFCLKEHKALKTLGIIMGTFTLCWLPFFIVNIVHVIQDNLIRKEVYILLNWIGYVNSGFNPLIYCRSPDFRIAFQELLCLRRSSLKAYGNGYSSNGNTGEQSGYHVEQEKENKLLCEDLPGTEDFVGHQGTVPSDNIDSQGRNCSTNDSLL

[2] = biological target: T2, Beta-1 adrenergic receptor (Homo sapiens, UniProt P08588); assay: Intrinsic activity (IA) for Beta-1 adrenoceptor agonism was determined as the maximal response with respect to the maximal response of isoproterenol at […].; assay type: functional
Target sequence in this assay (P08588 whole entry, looked up): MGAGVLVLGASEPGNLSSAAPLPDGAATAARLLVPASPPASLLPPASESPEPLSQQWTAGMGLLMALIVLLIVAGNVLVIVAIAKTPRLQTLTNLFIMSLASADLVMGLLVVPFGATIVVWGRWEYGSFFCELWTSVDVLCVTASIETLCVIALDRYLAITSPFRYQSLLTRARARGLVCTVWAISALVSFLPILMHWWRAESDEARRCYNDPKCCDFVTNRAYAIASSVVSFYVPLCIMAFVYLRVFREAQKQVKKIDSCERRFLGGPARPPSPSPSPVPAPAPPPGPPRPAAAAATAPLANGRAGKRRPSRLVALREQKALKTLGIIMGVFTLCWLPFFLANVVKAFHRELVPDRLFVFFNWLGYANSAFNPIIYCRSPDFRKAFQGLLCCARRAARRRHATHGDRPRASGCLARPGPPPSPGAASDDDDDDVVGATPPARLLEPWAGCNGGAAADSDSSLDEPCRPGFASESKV

[3] = biological target: T2, Beta-1 adrenergic receptor; assay: In vitro agonist activity measured by increase in cAMP levels in chinese hamster ovary cells (CHO) cells expressing human Beta-1 adrenergic receptor; assay type: functional, cell-based
Target sequence in this assay (P08588 whole entry): as the sequence (P08588 whole entry, looked up) above

[4] = biological target: T3, Beta-3 adrenergic receptor (Homo sapiens, UniProt P13945); assay: In vitro agonist activity by increase in cAMP levels in chinese hamster ovary cells (CHO) cells stimulated by human Beta-3 adrenergic receptor was determined; IA is inactive; assay type: functional, cell-based
Target sequence in this assay (P13945 whole entry): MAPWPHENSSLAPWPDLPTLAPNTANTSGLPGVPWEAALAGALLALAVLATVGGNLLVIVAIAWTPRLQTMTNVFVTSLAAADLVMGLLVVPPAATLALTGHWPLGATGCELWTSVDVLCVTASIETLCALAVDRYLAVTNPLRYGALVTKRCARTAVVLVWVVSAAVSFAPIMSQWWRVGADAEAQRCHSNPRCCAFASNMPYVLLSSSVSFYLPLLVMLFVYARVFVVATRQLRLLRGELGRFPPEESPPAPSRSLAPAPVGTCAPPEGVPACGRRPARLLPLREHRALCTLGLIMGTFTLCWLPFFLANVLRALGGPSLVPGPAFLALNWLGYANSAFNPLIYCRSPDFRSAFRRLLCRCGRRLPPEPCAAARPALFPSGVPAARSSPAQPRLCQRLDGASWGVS

[5] = biological target: T3, Beta-3 adrenergic receptor; assay: Intrinsic activity (IA) for Beta-3 adrenergic receptor agonism was determined as the maximal response with respect to the maximal response of isoproterenol at […].
Target sequence in this assay (P13945 whole entry, looked up): as the sequence (P13945 whole entry) above

[6] = biological target: T1, Beta-2 adrenergic receptor; assay: (§1) Compound was tested for the antagonistic activity against Beta-2 adrenergic receptor; assay type: functional
[7] = biological target: T2, Beta-1 adrenergic receptor; assay: Compound was tested for the antagonistic activity against Beta-1 adrenergic receptor; assay type: functional
Target sequence in this assay (P08588 whole entry): as the sequence (P08588 whole entry, looked up) above

Mus musculus = assay: In vivo activity of compound with an increase in thermogenesis in the Beta 3 transgenic mice at an ip dose of 10 mg/kg was determined; assay type: functional; settings: route intraperitoneal
[8] = biological target: T1, Beta-2 adrenergic receptor; assay: In vitro agonist activity by increase in cAMP levels in chinese hamster ovary cells (CHO) cells stimulated by human Beta-2 Adrenoceptor; assay type: functional, cell-based
[9] = biological target: T3, Beta-3 adrenergic receptor; assay: Intrinsic activity (IA) for Beta-3 adrenoceptor agonism was determined as the maximal response with respect to the maximal response of isoproterenol at […].; assay type: functional
Target sequence in this assay (P13945 whole entry, looked up): as the sequence (P13945 whole entry) above

[10] = biological target: T2, Beta-1 adrenergic receptor; assay: In vitro agonist activity by increase in cAMP levels in chinese hamster ovary cells (CHO) cells stimulated by human Beta-1 Adrenoceptor was determined; assay type: functional, cell-based
Target sequence in this assay (P08588 whole entry): as the sequence (P08588 whole entry, looked up) above

[11] = biological target: T3, Beta-3 adrenergic receptor; assay: In vitro agonist activity by increase in cAMP levels in chinese hamster ovary cells (CHO) cells stimulated by human Beta-3 Adrenoceptor was determined; assay type: functional, cell-based
Target sequence in this assay (P13945 whole entry): as the sequence (P13945 whole entry) above

[12] = biological target: T1, Beta-2 adrenergic receptor; assay: as §1

CCCCCCCCNC(=O)Nc1ccc(S(=O)(=O)N2CCC(CNC[C@H](O)COc3ccc(O)c4c3CCC(=O)N4)CC2)cc1
EC50 [1]: 680 nM | Intrinsic activity [2]: 0.63 | EC50 [3]: 390 nM

O=C(NCc1cc(F)ccc1F)Nc1ccc(S(=O)(=O)N2CCC(CNC[C@H](O)COc3ccc(O)c(F)c3)CC2)cc1
EC50 [3]: 525 nM

O=C(NCCCc1cccs1)Nc1ccc(S(=O)(=O)N2CCC(CNC[C@H](O)COc3ccc(O)cc3)CC2)cc1
EC50 [3]: 2050 nM

CCCCCCNC(=O)Nc1ccc(S(=O)(=O)N2CCC(CNC[C@H](O)COc3ccc(O)cc3)CC2)cc1
EC50 [3]: 10900 nM

O[C@@H](CNCC1CCN(CCC(F)(F)F)CC1)COc1cccc2[nH]c3ccccc3c12
EC50 [1]: > 1000 nM | EC50 [3]: 417 nM

O=C(NCc1cc(F)ccc1F)Nc1ccc(S(=O)(=O)N2CCC(CNC[C@H](O)COc3ccc(O)cc3)CC2)cc1
EC50 [3]: 1010 nM

CCCCCCNC(=O)Nc1ccc(S(=O)(=O)N2CCC(CNC[C@H](O)COc3cccc4[nH]c5ccccc5c34)CC2)cc1
EC50 [1]: > 1000 nM | EC50 [3]: > 1000 nM

O[C@@H](CNCC1CCN(c2ncccc2C(F)(F)F)CC1)COc1cccc2[nH]c3ccccc3c12
EC50 [4]: Not Active | EC50 [5]: Not Active

CCCCCCN1CCC(CNC[C@H](O)COc2cccc3[nH]c4ccccc4c23)CC1
EC50 [1]: > 1000 nM | EC50 [3]: > 1000 nM

CS(=O)(=O)Nc1cc(OC[C@@H](O)CNCC2CCN(S(=O)(=O)c3ccc(NC(=O)NCc4cc(F)ccc4F)cc3)CC2)ccc1O
EC50 [1]: 454 nM | Intrinsic activity [2]: 0.49 | IC50 [6]: 268 nM | IC50 [7]: 6160 nM | EC50 [3]: 353 nM | Thermogenesis (Mus musculus): 18

O=C(O)c1cccc(NC(=O)N2CCC(CNC[C@H](O)COc3cccc4[nH]c5ccccc5c34)CC2)c1
EC50 [8]: > 1000 nM | Intrinsic activity [9]: 0.29 | Intrinsic activity [2]: 0.05 | EC50 [10]: > 1000 nM | EC50 [11]: 70 nM

O=C(Nc1ccccc1)Nc1ccc(S(=O)(=O)N2CCC(CNC[C@H](O)COc3ccc(O)cc3)CC2)cc1
EC50 [3]: 489 nM

O=C(Nc1ccc(S(=O)(=O)N2CCC(CNC[C@H](O)COc3ccc(O)cc3)CC2)cc1)NC1CCCCC1
EC50 [3]: 1020 nM

CCCCCCCCNC(=O)Nc1ccc(S(=O)(=O)N2CCC(CNC[C@H](O)COc3ccc(O)cc3)CC2)cc1
IC50 [12]: 4 nM | IC50 [7]: 27 nM | EC50 [3]: 887 nM | Thermogenesis (Mus musculus): 30
